# Experimental data taken from US20220389061A1, “IMMUNOMODULATORS” (priority 2019, published 2022).
# Starred links: 1 amine or outer side, 2 acyl side, 3 side chain; linkers in the order of their positions; H or OH if unused. Positions of bridges follow the written chain, without caps; N, C: chain ends. Non-standard residues stand in square brackets, D forms with d. Residues, ends and D or L forms follow the SMILES beside them. Groups on a side chain read outwards from the residue. *: point of attachment. Trp(1-CH2COOH) = N[C@@H](Cc1cn(CC(=O)O)c2ccccc12)C(=O)O; Hyp = O=C(O)[C@@H]1C[C@@H](O)CN1; NMeNle = CCCC[C@H](NC)C(=O)O; X9 = Fc1ccc(NC(=S)*)c(Cl)c1; 3Abz = Nc1cccc(C(=O)O)c1; NMeA = CN[C@@H](C)C(=O)O; Dab = NCC[C@H](N)C(=O)O; Dap = NC[C@H](N)C(=O)O; X26 = S=C(Nc1ccccc1)*; CO = O=C([*:1])[*:2]
# Target: T1, PD-1/PD-L1 (Homo sapiens, UniProt Q9NZQ7)
# T1 construct: TVMV protease site linker (C); made in house; host or cells: HEK293T cells
# T1 sequence (Q9NZQ7 18-239): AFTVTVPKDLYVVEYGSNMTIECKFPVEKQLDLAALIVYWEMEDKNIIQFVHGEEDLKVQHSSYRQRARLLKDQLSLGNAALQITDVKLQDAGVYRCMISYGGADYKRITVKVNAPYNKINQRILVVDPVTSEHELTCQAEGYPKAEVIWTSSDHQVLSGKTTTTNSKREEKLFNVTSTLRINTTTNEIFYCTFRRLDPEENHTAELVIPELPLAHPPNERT
# Test: PD-1/PD-L1 Homogenous Time-Resolved Fluorescence (HTRF) binding assay
# Conditions: PD-L1-His 10 nM pre-incubated with inhibitor, PD-1-Ig 20 nM; read-out: HTRF IC50
# Method in brief: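 HTRF read-out using europium cryptate anti-Ig (1 nM) and APC anti-His (20 nM) on extracellular-domain fusion proteins in dPBS/0.1% BSA/0.05% Tween-20. Inhibitor first incubated 15 min with 10 nM PD-L1-His, followed by 20 nM PD-1-Ig for another 15 min.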
row,IC50,SMILES
1,2.8 nM,CCCC[C@H]1C(=O)N(C)[C@@H](CCCC)C(=O)N[C@@H](CC(C)C)C(=O)N[C@H](C(=O)NCC(N)=O)CSCC(=O)N[C@@H](Cc2ccc(O)cc2)C(=O)N(C)[C@@H](C)C(=O)N[C@@H](CC(N)=O)C(=O)N2CCC[C@H]2C(=O)N[C@@H](CNC(=S)Nc2ccc(F)cc2Cl)C(=O)N[C@@H](CC(C)C)C(=O)N2C[C@H](O)C[C@H]2C(=O)N[C@@H](Cc2c[nH]c3ccccc23)C(=O)N[C@@H](CCNC(=S)Nc2ccc(F)cc2Cl)C(=O)N[C@@H](Cc2cn(CC(=O)O)c3ccccc23)C(=O)N1C [Example 1031] ({CH2CO}-Y[NMeA]NP[Dap](X9)L[Hyp]W[Dab](X9)[Trp(1-CH2COOH)][NMeNle][NMeNle]LCG-NH2; thioether N-14)
2,1.9 nM,CCCC[C@H]1C(=O)N(C)[C@@H](CCCC)C(=O)N[C@@H](CC(C)C)C(=O)N[C@H](C(=O)NCC(N)=O)CSCC(=O)N[C@@H](Cc2ccc(O)cc2)C(=O)N(C)[C@@H](C)C(=O)N[C@@H](CC(N)=O)C(=O)N2CCC[C@H]2C(=O)N[C@@H](CNC(=S)Nc2ccccc2)C(=O)N[C@@H](CC(C)C)C(=O)N2C[C@H](O)C[C@H]2C(=O)N[C@@H](Cc2c[nH]c3ccccc23)C(=O)N[C@@H](CCNC(=S)Nc2ccccc2)C(=O)N[C@@H](Cc2cn(CC(=O)O)c3ccccc23)C(=O)N1C [Example 1001] ({CH2CO}-Y[NMeA]NP[Dap](X26)L[Hyp]W[Dab](X26)[Trp(1-CH2COOH)][NMeNle][NMeNle]LCG-NH2; thioether N-14)
3,18 nM,CCCC[C@H]1C(=O)N(C)[C@@H](CCCC)C(=O)N[C@@H](CC(C)C)C(=O)N[C@H](C(=O)NCC(N)=O)CSCC(=O)N[C@@H](Cc2ccc(O)cc2)C(=O)N(C)[C@@H](C)C(=O)N[C@@H](CC(N)=O)C(=O)N2CCC[C@H]2C(=O)N[C@@H](CNC(=O)Nc2cccc(C(=O)OCC)c2)C(=O)N[C@@H](CC(C)C)C(=O)N2C[C@H](O)C[C@H]2C(=O)N[C@@H](Cc2c[nH]c3ccccc23)C(=O)N[C@@H](CCNC(=O)Nc2cccc(C(=O)OCC)c2)C(=O)N[C@@H](Cc2cn(CC(=O)O)c3ccccc23)C(=O)N1C [Example 1100] ({CH2CO}-Y[NMeA]NP[Dap]([CO-3Abz-OEt])L[Hyp]W[Dab]([CO-3Abz-OEt])[Trp(1-CH2COOH)][NMeNle][NMeNle]LCG-NH2; thioether N-14)
